In the assay the target is NS3 (Hepatitis C virus, UniProt A3EZJ3). The assay can be described thus: In vitro antiviral activity against hepatitis C virus (HCV) NS3 protease using scintillation proximity assay. Also noted: species or system Hepacivirus hominis.
Chain of NS3 (A3EZJ3 whole entry): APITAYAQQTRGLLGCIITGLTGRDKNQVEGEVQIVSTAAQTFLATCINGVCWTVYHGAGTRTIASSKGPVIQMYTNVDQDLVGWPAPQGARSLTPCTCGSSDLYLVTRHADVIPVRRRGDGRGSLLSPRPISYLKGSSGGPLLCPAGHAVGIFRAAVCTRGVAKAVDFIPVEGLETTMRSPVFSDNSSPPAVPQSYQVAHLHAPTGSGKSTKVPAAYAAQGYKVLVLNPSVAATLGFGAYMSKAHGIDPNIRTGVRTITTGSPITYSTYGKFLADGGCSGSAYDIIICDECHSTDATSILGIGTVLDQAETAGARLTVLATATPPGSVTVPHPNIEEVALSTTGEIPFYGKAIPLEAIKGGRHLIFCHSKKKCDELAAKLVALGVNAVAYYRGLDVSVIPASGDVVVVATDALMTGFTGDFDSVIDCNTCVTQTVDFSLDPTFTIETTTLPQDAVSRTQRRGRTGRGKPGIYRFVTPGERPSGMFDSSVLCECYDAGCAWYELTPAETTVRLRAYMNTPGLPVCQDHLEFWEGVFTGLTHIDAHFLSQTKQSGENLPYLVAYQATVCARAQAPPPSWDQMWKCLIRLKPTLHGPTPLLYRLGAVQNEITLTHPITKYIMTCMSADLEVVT

In turn, `O=C1C=C2C(=CCOC2OC(=O)c2ccc(Br)cc2)O1` (stereo not drawn) gave an IC50 of 37.4 µM.

As to `CC(=O)OC1OCC=C2OC(=O)C=C21` (stereo not drawn), the IC50 was 36.7 µM.

Compound `O=C1C=C2C(=CCOC2O)O1` (stereo not drawn) [PATULIN] showed an IC50 of 24.7 µM.

The values are drawn from ChEMBL document CHEMBL1131788, “Isolation and structure of SCH 351633: a novel hepatitis C virus (HCV) NS3 protease inhibitor from the fungus Penicillium griseofulvum” (Bioorg Med Chem Lett, 1999).
